Measured values as given in ChEMBL document CHEMBL3045080, “Baseline susceptibility to chlorantraniliprole of Brazilian populations of Plutella xylostella” (2012).

Columns and labels:
Format in all cases: functional
[1] = test system: Plutella xylostella; experiment: Insecticidal activity against Plutella xylostella (diamondback moth) CG1 using topical method of compound application
[2] = test system: Plutella xylostella; experiment: Insecticidal activity against Plutella xylostella (diamondback moth) CG1 using leaf dip immersion method of compound application
[3] = test system: Plutella xylostella; experiment: Insecticidal activity against Plutella xylostella (diamondback moth) CG1 using potter tower method of compound application
[4] = test system: Plutella xylostella; experiment: Insecticidal activity against Plutella xylostella (diamondback moth) Brazilian field isolates

Q: Which results are given for `CNC(=O)c1cc(Cl)cc(C)c1NC(=O)c1cc(Br)nn1-c1ncccc1Cl` [CHLORANTRANILIPROLE]?
A: LC50 [1]: 1.422 mgAi/L; LC95 [1]: 35.13 mgAi/L; LC99 [1]: 132.65 mgAi/L; LC50 [2]: 0.02 mgAi/L; LC95 [2]: 0.046 mgAi/L; LC99 [2]: 0.066 mgAi/L; LC50 [3]: 0.018 mgAi/L; LC95 [3]: 0.073 mgAi/L; LC99 [3]: 0.13 mgAi/L; LC50 [4]: 0.025 mgAi/L; LC99 [4]: 0.212 mgAi/L
